Experimental data reported in patent US9833497B2, “Human originated EGF domain proteins and use of the same” (CHENGDU SOURCEBIO LIMITED-LIABILITY COMPANY, priority 2013, dated 2017).

Assays:
Assay type in all cases: cell-based
[1] = test system: Enterobacter cloacae; test: MIC against Gram-negative bacteria: Enterobacter cloacae; conditions: 5×10^5 CFU/mL
In short: (§1)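 MIC, the lowest recombinant protein concentration giving no bacterial growth, found by two-fold serial dilution of human EGF-domain proteins in triplicate. Inoculum 5×10^5 CFU/mL in LB from cultures at McFarland 0.5; plates incubated at 37° C, 175 rpm shaking.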

[2] = test system: Aeromonas hydrophila; test: MIC against Gram-negative bacteria: Aeromonas hydrophila; conditions: 5×10^5 CFU/mL
In short: as §1

[3] = test system: Moraxella catarrhalis; test: MIC against Gram-negative bacteria: Moraxella catarrhalis; conditions: 5×10^5 CFU/mL
In short: as §1

[4] = test system: Citrobacter diversus; test: MIC against Gram-negative bacteria: Citrobacter diversus; conditions: 5×10^5 CFU/mL
In short: as §1

[5] = test system: Klebsiella pneumonia; test: MIC against Gram-negative bacteria: Klebsiella pneumonia; conditions: 5×10^5 CFU/mL
In short: as §1

[6] = test system: Pseudomonas aeruginosa; test: MIC against Gram-negative bacteria: Pseudomonas aeruginosa; conditions: 5×10^5 CFU/mL
In short: as §1

[7] = test system: Proteus mirabilis; test: MIC against Gram-negative bacteria: Proteus mirabilis; conditions: 5×10^5 CFU/mL
In short: as §1

[8] = test system: E. coli BL21; test: MIC against Gram-negative bacteria: E. coli BL21; conditions: 5×10^5 CFU/mL
In short: as §1

[9] = test system: Proteus vulgaris; test: MIC against Gram-negative bacteria: Proteus vulgaris; conditions: 5×10^5 CFU/mL
In short: as §1

[10] = test system: Serratia marcescens; test: MIC against Gram-negative bacteria: Serratia marcescens; conditions: 5×10^5 CFU/mL
In short: as §1

[11] = test system: E. coli DH5α; test: Antibacterial activity: MIC and growth curve against E. coli DH5α in 96-well plate; conditions: minimal inhibitory concentration against E. coli DH5α; 96-well plate, 5×10^5 CFU/mL, 37° C., judged after 8 h
In short: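 Log-phase DH5α (OD600 about 0.5, 37° C, 185 rpm in LB) was pelleted, resuspended in fresh LB and seeded at 5×10^5 CFU/mL with recombinant protein at 50, 25 and 12.5 μg/mL (two-fold series), in triplicate. Plates were shaken at 175 rpm, 37° C, and OD600 was read every 30 min. MIC was the lowest concentration with no growth.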

[12] = E. cloacae, 10 h cultivation at 37° C.
[13] = A. hydrophila, 10 h cultivation at 37° C.
[14] = M. catarrhalis, 10 h cultivation at 37° C.
[15] = C. diversus, 10 h cultivation at 37° C.
[16] = K. pneumonia, 10 h cultivation at 37° C.
[17] = P. aeruginosa, 10 h cultivation at 37° C.
[18] = P. mirabilis, 10 h cultivation at 37° C.
[19] = E. coli BL21, 10 h cultivation at 37° C.
[20] = P. vulgaris, 10 h cultivation at 37° C.
[21] = S. marcescens, 10 h cultivation at 37° C.
[22] = Enterobacter cloacae, 96-well plate, 37° C., 10 h
[23] = Aeromonas hydrophila, 96-well plate, 37° C., 10 h
[24] = Moraxella catarrhalis, 96-well plate, 37° C., 10 h
[25] = Citrobacter diversus, 96-well plate, 37° C., 10 h
[26] = Klebsiella pneumonia, 96-well plate, 37° C., 10 h
[27] = Pseudomonas aeruginosa, 96-well plate, 37° C., 10 h
[28] = Proteus mirabilis, 96-well plate, 37° C., 10 h
[29] = E. coli BL21, 96-well plate, 37° C., 10 h
[30] = Proteus vulgaris, 96-well plate, 37° C., 10 h
[31] = Serratia marcescens, 96-well plate, 37° C., 10 h

## PRT705 (LDDSCKLTCENGGRCILNEKGDLRCHCWPSYSGE; listed as Homo sapiens)
[1]; 96-well plate, 37° C., 10 h
  MIC E. cloacae: 12.5 µg/mL
[2]; 96-well plate, 37° C., 10 h
  MIC A. hydrophila: 25 µg/mL
[3]; 96-well plate, 37° C., 10 h
  MIC M. catarrhalis: 25 µg/mL
[4]; 96-well plate, 37° C., 10 h
  MIC C. diversus: 100 µg/mL
[5]; 96-well plate, 37° C., 10 h
  MIC K. pneumonia: 50 µg/mL
[6]; 96-well plate, 37° C., 10 h
  MIC P. aeruginosa: 12.5 µg/mL
[7]; 96-well plate, 37° C., 10 h
  MIC P. mirabilis: 50 µg/mL
[8]; 96-well plate, 37° C., 10 h
  MIC E. coli BL21: 50 µg/mL
[9]; 96-well plate, 37° C., 10 h
  MIC P. vulgaris: 12.5 µg/mL
[10]; 96-well plate, 37° C., 10 h
  MIC S. marcescens: 50 µg/mL
[11]
  MIC: 25 µg/mL

## PRT878 (ADPLCAPARNPCANGGLCTVLAPGEVGCDCSHTGFGGKFCS; listed as Homo sapiens)
[1]; [12]
  MIC (μg/mL) E. cloacae: 12.5 µg/mL
[2]; [13]
  MIC (μg/mL) A. hydrophila: 50 µg/mL
[3]; [14]
  MIC (μg/mL) M. catarrhalis: 25 µg/mL
[4]; [15]
  MIC (μg/mL) C. diversus: 12.5 µg/mL
[5]; [16]
  MIC (μg/mL) K. pneumonia: 50 µg/mL
[6]; [17]
  MIC (μg/mL) P. aeruginosa: 12.5 µg/mL
[7]; [18]
  MIC (μg/mL) P. mirabilis: 50 µg/mL
[8]; [19]
  MIC (μg/mL) E. coli BL21: 25 µg/mL
[9]; [20]
  MIC (μg/mL) P. vulgaris: 25 µg/mL
[10]; [21]
  MIC (μg/mL) S. marcescens: 12.5 µg/mL
[11]
  MIC: 50 µg/mL

## PRT110 (DIDECASSNGTLCAHICINTLGSYRCECREGYIREDDGKTCT; listed as Homo sapiens)
[1]; [22]
  MIC (μg/mL) E. cloacae: 12.5 µg/mL
[2]; [23]
  MIC (μg/mL) A. hydrophila: 50 µg/mL
[3]; [24]
  MIC (μg/mL) M. catarrhalis: 50 µg/mL
[4]; [25]
  MIC (μg/mL) C. diversus: 12.5 µg/mL
[5]; [26]
  MIC (μg/mL) K. pneumonia: 50 µg/mL
[6]; [27]
  MIC (μg/mL) P. aeruginosa: 25 µg/mL
[7]; [28]
  MIC (μg/mL) P. mirabilis: 12.5 µg/mL
[8]; [29]
  MIC (μg/mL) E. coli BL21: 12.5 µg/mL
[9]; [30]
  MIC (μg/mL) P. vulgaris: 12.5 µg/mL
[10]; [31]
  MIC (μg/mL) S. marcescens: 12.5 µg/mL
[11]
  MIC: 25 µg/mL

## PRT617 (CNCNSKGSLSARCDNSGRCSCKPGVTGARCDRCLPGFHMLTDAGCTQ; listed as Homo sapiens)
[1]; 96-well plate, 37° C., 10 h
  MIC E. cloacae: 25 µg/mL
[2]; 96-well plate, 37° C., 10 h
  MIC A. hydrophila: 12.5 µg/mL
[3]; 96-well plate, 37° C., 10 h
  MIC M. catarrhalis: 12.5 µg/mL
[4]; 96-well plate, 37° C., 10 h
  MIC C. diversus: 25 µg/mL
[5]; 96-well plate, 37° C., 10 h
  MIC K. pneumonia: 12.5 µg/mL
[6]; 96-well plate, 37° C., 10 h
  MIC P. aeruginosa: 25 µg/mL
[7]; 96-well plate, 37° C., 10 h
  MIC P. mirabilis: 25 µg/mL
[8]; 96-well plate, 37° C., 10 h
  MIC E. coli BL21: 12.5 µg/mL
[9]; 96-well plate, 37° C., 10 h
  MIC P. vulgaris: 12.5 µg/mL
[10]; 96-well plate, 37° C., 10 h
  MIC S. marcescens: 25 µg/mL
[11]
  MIC: 25 µg/mL

## PRT121 (CGPCFNNGVPILEGTSCRCQCRLGSLGAACE; listed as Homo sapiens)
[1]; [22]
  MIC (μg/mL) E. cloacae: 50 µg/mL
[2]; [23]
  MIC (μg/mL) A. hydrophila: 12.5 µg/mL
[3]; [24]
  MIC (μg/mL) M. catarrhalis: 12.5 µg/mL
[4]; [25]
  MIC (μg/mL) C. diversus: 50 µg/mL
[5]; [26]
  MIC (μg/mL) K. pneumonia: 12.5 µg/mL
[6]; [27]
  MIC (μg/mL) P. aeruginosa: 25 µg/mL
[7]; [28]
  MIC (μg/mL) P. mirabilis: 25 µg/mL
[8]; [29]
  MIC (μg/mL) E. coli BL21: 12.5 µg/mL
[9]; [30]
  MIC (μg/mL) P. vulgaris: 50 µg/mL
[10]; [31]
  MIC (μg/mL) S. marcescens: 25 µg/mL
[11]
  MIC: 25 µg/mL

## PRT484 (RCEDLDGVVCGGHGTCSCGRCVCERGWFGKLCQ; listed as Homo sapiens)
[1]; 96-well plate, 37° C., 10 h
  MIC against E. cloacae: 12.5 µg/mL
[2]; 96-well plate, 37° C., 10 h
  MIC against A. hydrophila: 50 µg/mL
[3]; 96-well plate, 37° C., 10 h
  MIC against M. catarrhalis: 50 µg/mL
[4]; 96-well plate, 37° C., 10 h
  MIC against C. diversus: 12.5 µg/mL
[5]; 96-well plate, 37° C., 10 h
  MIC against K. pneumonia: 50 µg/mL
[6]; 96-well plate, 37° C., 10 h
  MIC against P. aeruginosa: 25 µg/mL
[7]; 96-well plate, 37° C., 10 h
  MIC against P. mirabilis: 12.5 µg/mL
[8]; 96-well plate, 37° C., 10 h
  MIC against E. coli BL21: 12.5 µg/mL
[9]; 96-well plate, 37° C., 10 h
  MIC against P. vulgaris: 50 µg/mL
[10]; 96-well plate, 37° C., 10 h
  MIC against S. marcescens: 12.5 µg/mL
[11]
  MIC: 25 µg/mL

## PRT434 (DVNECATENPCVQTCVNTYGSFICRCDPGYELEEDGVHCS; listed as Homo sapiens)
[1]; [12]
  MIC: 12.5 µg/mL
[2]; [13]
  MIC: 50 µg/mL
[3]; [14]
  MIC: 50 µg/mL
[4]; [15]
  MIC: 12.5 µg/mL
[5]; [16]
  MIC: 50 µg/mL
[6]; [17]
  MIC: 12.5 µg/mL
[7]; [18]
  MIC: 25 µg/mL
[8]; [19]
  MIC: 50 µg/mL
[9]; [20]
  MIC: 12.5 µg/mL
[10]; [21]
  MIC: 25 µg/mL
[11]
  MIC: 12.5 µg/mL
